The source made the active and inactive calls. No cut-off for these calls is given here.
Experiments:
Jurkat [1] = experiment: Cytotoxicity against human Jurkat cells assessed as reduction in cell viability by 7-AAD staining based flow cytometric analysis; format: functional
U-937 = experiment: Cytotoxicity against human U937 cells assessed as reduction in cell viability by 7-AAD staining based flow cytometric analysis; format: functional
Jurkat [2] = experiment: Induction of apoptosis in human Jurkat cells assessed as early apoptotic cells at 400 nM after 24 hrs by Annexin V/7-AAD staining.based flow cytometric analysis relative to control; format: functional
Jurkat [3] = experiment: Induction of apoptosis in human Jurkat cells assessed as necrotic cells at 400 nM after 24 hrs by Annexin V/7-AAD staining.based flow cytometric analysis relative to control; format: functional
Jurkat [4] = experiment: Induction of apoptosis in human Jurkat cells assessed as viable cells at 200 nM after 24 hrs by Annexin V/7-AAD staining.based flow cytometric analysis relative to control; format: functional; conditions: read-out: Activity
Jurkat [5] = experiment: Induction of apoptosis in human Jurkat cells assessed as necrotic cells at 200 nM after 24 hrs by Annexin V/7-AAD staining.based flow cytometric analysis relative to control; format: functional
Jurkat [6] = experiment: Induction of apoptosis in human Jurkat cells assessed as late apoptotic cells at 100 nM after 24 hrs by Annexin V/7-AAD staining.based flow cytometric analysis relative to control; format: functional
Jurkat [7] = experiment: Induction of apoptosis in human Jurkat cells assessed as necrotic cells at 100 nM after 24 hrs by Annexin V/7-AAD staining.based flow cytometric analysis relative to control; format: functional
Jurkat [8] = experiment: Induction of apoptosis in human Jurkat cells assessed as viable cells at 50 nM after 24 hrs by Annexin V/7-AAD staining.based flow cytometric analysis relative to control; format: functional; conditions: read-out: Activity
Jurkat [9] = experiment: Induction of apoptosis in human Jurkat cells assessed as early apoptotic cells at 50 nM after 24 hrs by Annexin V/7-AAD staining.based flow cytometric analysis relative to control; format: functional
Jurkat [10] = experiment: Induction of apoptosis in human Jurkat cells assessed as late apoptotic cells at 50 nM after 24 hrs by Annexin V/7-AAD staining.based flow cytometric analysis relative to control; format: functional
Jurkat [11] = experiment: Induction of cell cycle arrest in human Jurkat cells assessed as accumulation at G2 phase at 400 nM after 24 hrs by Guava Cell Cycle reagent based flow cytometric analysis relative to control; format: functional
Jurkat [12] = experiment: Induction of cell cycle arrest in human Jurkat cells assessed as accumulation at sub-G1 phase at 400 nM after 24 hrs by Guava Cell Cycle reagent based flow cytometric analysis relative to control; format: functional
Jurkat [13] = experiment: Induction of cell cycle arrest in human Jurkat cells assessed as accumulation at sub-G1 phase at 200 nM after 24 hrs by Guava Cell Cycle reagent based flow cytometric analysis relative to control; format: functional
Jurkat [14] = experiment: Induction of cell cycle arrest in human Jurkat cells assessed as accumulation at sub-G1 phase at 100 nM after 24 hrs by Guava Cell Cycle reagent based flow cytometric analysis relative to control; format: functional
Jurkat [15] = experiment: Induction of cell cycle arrest in human Jurkat cells assessed as accumulation at sub-G1 phase at 50 nM after 24 hrs by Guava Cell Cycle reagent based flow cytometric analysis relative to control; format: functional
Jurkat [16] = experiment: Induction of cell cycle arrest in human Jurkat cells assessed as accumulation at G2/G1 phase at 400 nM after 24 hrs by Guava Cell Cycle reagent based flow cytometric analysis relative to control; format: functional
Jurkat [17] = experiment: Induction of cell cycle arrest in human Jurkat cells assessed as accumulation at G2/G1 phase at 200 nM after 24 hrs by Guava Cell Cycle reagent based flow cytometric analysis relative to control; format: functional
Jurkat [18] = experiment: Induction of cell cycle arrest in human Jurkat cells assessed as accumulation at G2/G1 phase at 100 nM after 24 hrs by Guava Cell Cycle reagent based flow cytometric analysis relative to control; format: functional
Jurkat [19] = experiment: Induction of cell cycle arrest in human Jurkat cells assessed as accumulation at super-G2 phase at 400 nM after 24 hrs by Guava Cell Cycle reagent based flow cytometric analysis relative to control; format: functional
Jurkat [20] = experiment: Induction of cell cycle arrest in human Jurkat cells assessed as accumulation at super-G2 phase at 100 nM after 24 hrs by Guava Cell Cycle reagent based flow cytometric analysis relative to control; format: functional
Jurkat [21] = experiment: Induction of DNA damage in human Jurkat cells assessed as increase in H2Ax phosphorylation at 0.4 uM after 2 hrs by Alexa Fluor555 staining based flow cytometric analysis; format: functional, cell-based
Jurkat [22] = experiment: Induction of mitochondrial membrane potential loss in human Jurkat cells after 4 hrs by flow cytometric analysis; format: functional, cell-based
Jurkat [23] = experiment: Induction of mitochondrial membrane potential loss in human Jurkat cells assessed as live cells at 200 nM after 4 hrs by MitoSense Red/7-AAD. flow cytometric analysis relative to control; format: functional
Jurkat [24] = experiment: Induction of mitochondrial membrane potential loss in human Jurkat cells assessed as early apoptotic cells at 200 nM after 4 hrs by MitoSense Red/7-AAD. flow cytometric analysis relative to control; format: functional
Jurkat [25] = experiment: Induction of mitochondrial membrane potential loss in human Jurkat cells assessed as live cells at 400 nM after 4 hrs by MitoSense Red/7-AAD. flow cytometric analysis relative to control; format: functional
Jurkat [26] = experiment: Induction of ROS generation in human Jurkat cells assessed as mitochondria damaged cells at 200 nM after 4 hrs by MitoSox Red/annexin V-CF488A staining based flow cytometric analysis (reference value: 0%); format: functional
Jurkat [27] = experiment: Induction of ROS generation in human Jurkat cells assessed as mitochondria damaged cells at 200 nM after 24 hrs by MitoSox Red/annexin V-CF488A staining based flow cytometric analysis (reference value: 0%); format: functional
[28] = Effect on total NFKappaB level in human jurkat cells at 400 nM by magnetic bead based immunoassay; format: cell-based; conditions: 0.4 µM
[29] = Effect on total p38 level in human jurkat cells at 400 nM by magnetic bead based immunoassay; format: cell-based; conditions: 0.4 µM
[30] = Effect on total ERK1/2 level in human jurkat cells at 400 nM by magnetic bead based immunoassay; format: cell-based; conditions: 0.4 µM
[31] = Effect on total AKT level in human jurkat cells at 400 nM by magnetic bead based immunoassay; format: cell-based; conditions: 0.4 µM
[32] = Effect on total STAT3 level in human jurkat cells at 400 nM by magnetic bead based immunoassay; format: cell-based; conditions: 0.4 µM

C#C[C@H](O)CCCCCCCCC/C=C\CC/C=C\CC/C=C\CCCCCCCCCCCCCCCC
IC50 (Jurkat [1]): 161 nM
IC50 (U-937): 124 nM
Activity (Jurkat [2]): 15.86%
Activity (Jurkat [3]): 1.01%
viability at 0.2 µM (Jurkat [4]): 36.1%
Activity (Jurkat [5]): 7.51%
Activity (Jurkat [6]): 39.78%
Activity (Jurkat [7]): 5.89%
viability at 0.05 µM (Jurkat [8]): 59.8%
Activity (Jurkat [9]): 14.25%
Activity (Jurkat [10]): 23.53%
Activity (Jurkat [11]): 7.68%
Activity (Jurkat [12]): 16.56%
Activity (Jurkat [13]): 18.01%
Activity (Jurkat [14]): 13.99%
Activity (Jurkat [15]): 10.76%
Activity (Jurkat [16]): 1.93%
Activity (Jurkat [17]): 1.91%
Activity (Jurkat [18]): 1.94%
Activity (Jurkat [19]): 1.85%
Activity (Jurkat [20]): 1.21%
Activity (Jurkat [21]): inactive
Activity (Jurkat [22]): Dose-dependent effect
Activity (Jurkat [23]): 95.64%
Activity (Jurkat [24]): 0.9%
Activity (Jurkat [25]): 63.45%
Activity (Jurkat [26]): 0.16%
Activity (Jurkat [27]): 0%
Activity [28]: Toxic
Activity [29]: Toxic
Activity [30]: Toxic
Activity [31]: Toxic
Activity [32]: Toxic

— ChEMBL document CHEMBL4673230, “Total Synthesis of Natural Lembehyne C and Investigation of Its Cytotoxic Properties” (J Nat Prod, 2020)
